Data taken from paper PMC9959048, “Lipidation of Naturally Occurring α-Helical Antimicrobial Peptides as a Promising Strategy for Drug Design” (International Journal of Molecular Sciences, 2023).
≈ marks a conversion by molar mass, not a printed value. Residues, ends and D or L forms follow the SMILES beside them. *: point of attachment. Palmitoyl = CCCCCCCCCCCCCCCC(=O)*; Myristoyl = CCCCCCCCCCCCCC(=O)*

Key:
S. aureus PCM1650 = format: cell-based, Staphylococcus aureus; conditions: Mueller–Hinton broth, inoculum 5 × 10^5 CFU/mL, 24 h, 37 °C, absorbance 600 nm, triplicate
Experimental: (§1) The evaluation of the antimicrobial activity of the synthesized lipopeptides was performed against the following reference bacterial and fungal strains: Staphylococcus aureus PCM 1650, Staphylococcus aureus PCM 2054, Staphylococcus epidermidis PCM 521, Staphylococcus epidermidis PCM 2118, Escherichia coli PCM 2057, Candida albicans PCM 2566, Candida glabrata CCM 8270, Candida krusei CCM 8271, Candida parapsilosis CCM 8260.
(§2) For the initial cultivation of the bacteria and fungi, Luria-Bertani broth (LB, Biomaxima, Lublin, Poland) and Sabouraud Dextrose broth (SB, Biomaxima, Lublin, Poland) were used, respectively. Antimicrobial properties of the compounds were analyzed through the determination of MIC (minimal inhibitory concentrations) by my means of the serial micro-dilution technique according to the guidelines of Clinical & Laboratory Standard Institute (CLSI) established for aerobic bacteria and yeasts.
(§3) According to the procedures, Mueller–Hinton broth (MHB) was used as the working medium for the analysis of the bacterial susceptibility, while RPMI-1640 (with L-glutamine, without sodium bicarbonate) growth medium buffered with MOPS (morpholinepropanesulfonic acid) and supplemented with 2% glucose was used for the experiments with the fungi.
(§4) The experiments were carried out for 24 h at 37 and 35 °C for the bacteria and fungi, respectively. Then, the absorbance was measured at 600 nm for each well of the 96-well plate using a microplate reader (Sunrise TM, Tecan Trading AG, Männedorf, Switzerland). Based on the obtained results, the degree of inhibition of the growth of microorganisms (expressed in %) in the presence of the tested compounds range was determined with respect to the control probes. Inoculated wells without peptide were treated as a positive control (100% growth), and the wells containing working medium only were defined as a negative control (0% growth). All measurements were repeated in triplicate.

S. aureus PCM2054 = format: cell-based, Staphylococcus aureus; conditions: Mueller–Hinton broth, inoculum 5 × 10^5 CFU/mL, 24 h, 37 °C, absorbance 600 nm, triplicate
Experimental: as §1, §2, §3, §4

S. epidermidis PCM2118 = format: cell-based, Staphylococcus epidermidis; conditions: Mueller–Hinton broth, inoculum 5 × 10^5 CFU/mL, 24 h, 37 °C, absorbance 600 nm, triplicate
Experimental: as §1, §2, §3, §4

S. epidermidis PCM521 = format: cell-based, Staphylococcus epidermidis; conditions: Mueller–Hinton broth, inoculum 5 × 10^5 CFU/mL, 24 h, 37 °C, absorbance 600 nm, triplicate
Experimental: as §1, §2, §3, §4

E. coli PCM2057 = format: cell-based, Escherichia coli; conditions: Mueller–Hinton broth, inoculum 5 × 10^5 CFU/mL, 24 h, 37 °C, absorbance 600 nm, triplicate
Experimental: as §1, §2, §3, §4

C. albicans PCM2566 = format: cell-based, Candida albicans; conditions: RPMI-1640 with MOPS and 2% glucose, inoculum 5 × 10^3 CFU/mL, 24 h, 35 °C, absorbance 600 nm, triplicate
Experimental: as §1, §2, §3, §4

C. glabrata CCM8270 = format: cell-based, Candida glabrata; conditions: RPMI-1640 with MOPS and 2% glucose, inoculum 5 × 10^3 CFU/mL, 24 h, 35 °C, absorbance 600 nm, triplicate
Experimental: as §1, §2, §3, §4

C. krusei CCM8271 = format: cell-based, Candida krusei; conditions: RPMI-1640 with MOPS and 2% glucose, inoculum 5 × 10^3 CFU/mL, 24 h, 35 °C, absorbance 600 nm, triplicate
Experimental: as §1, §2, §3, §4

C. parapsilosis CCM 8260 = format: cell-based, Candida parapsilosis; conditions: RPMI-1640 with MOPS and 2% glucose, inoculum 5 × 10^3 CFU/mL, 24 h, 35 °C, absorbance 600 nm, triplicate
Experimental: as §1, §2, §3, §4

fungi Candida spps = assay: MIC, antifungal activity; format: cell-based; conditions: text summary of Table 1, Candida strains
Experimental: as §1
as §2, with “yeasts. […]” for “yeasts.”
as §4, with “Inoculated wells without peptide were treated as a positive control (100% growth), and the wells containing working medium only were defined as a negative control (0% growth). All measurements were repeated in triplicate.” left out

**Q.** How did the “MIC, S. aureus PCM1650” value (S. aureus PCM1650) turn out when `CCCCCCCCCCCCCC(=O)N[C@@H](CCCCN)C(=O)N[C@@H](CCCNC(=N)N)C(=O)N[C@@H](Cc1ccccc1)C(=O)N[C@@H](CCCCN)C(=O)N[C@@H](CCCCN)C(=O)N[C@@H](Cc1ccccc1)C(=O)N[C@@H](Cc1ccccc1)C(=O)N[C@@H](CCCCN)C(=O)N[C@@H](CCCCN)C(=O)N[C@@H](CC(C)C)C(=O)N[C@@H](CCCCN)C(N)=O` [C14-ATRA-1] (Myristoyl-KRFKKFFKKLK-NH2) was run?
**A.** Its value is 12.5 µg/mL (≈ 7.32 µM).

**Q.** And the “MIC, S. aureus PCM2054” value (S. aureus PCM2054)?
**A.** Its value is 3.9 µg/mL (≈ 2.28 µM).

**Q.** And the “MIC, S. epidermidis PCM2118” value (S. epidermidis PCM2118)?
**A.** Its value is 6.25 µg/mL (≈ 3.66 µM).

**Q.** What about the “MIC, S. epidermidis PCM521” value (S. epidermidis PCM521) of the same molecule?
**A.** The value was 25 µg/mL (≈ 14.6 µM).

**Q.** What about the “MIC, E. coli PCM2057” value (E. coli PCM2057) of the same molecule?
**A.** Its value is >50 µg/mL.

**Q.** And the “MIC, C. albicans PCM2566” value (C. albicans PCM2566)?
**A.** The value was 2.5 µg/mL (≈ 1.46 µM).

**Q.** What about the “MIC, C. glabrata CCM8270” value (C. glabrata CCM8270) of the same molecule?
**A.** Its value is 3.13 µg/mL (≈ 1.83 µM).

**Q.** And the “MIC, C. krusei CCM8271” value (C. krusei CCM8271)?
**A.** The value was 2.5 µg/mL (≈ 1.46 µM).

**Q.** What about the “MIC, C. parapsilosis CCM 8260” value (C. parapsilosis CCM 8260) of the same molecule?
**A.** The value was 3.13 µg/mL (≈ 1.83 µM).

**Q.** Which results are given for `CCCCCCCCCCCCCCCC(=O)N[C@@H](CCCCN)C(=O)N[C@@H](CCCNC(=N)N)C(=O)N[C@@H](Cc1ccccc1)C(=O)N[C@@H](CCCCN)C(=O)N[C@@H](CCCCN)C(=O)N[C@@H](Cc1ccccc1)C(=O)N[C@@H](Cc1ccccc1)C(=O)N[C@@H](CCCCN)C(=O)N[C@@H](CCCCN)C(=O)N[C@@H](CC(C)C)C(=O)N[C@@H](CCCCN)C(N)=O` [C16-ATRA-1] (Palmitoyl-KRFKKFFKKLK-NH2)?
**A.** MIC, S. aureus PCM2054 (S. aureus PCM2054): >50 µg/mL; MIC, S. epidermidis PCM2118 (S. epidermidis PCM2118): 12.5 µg/mL (≈ 7.2 µM); MIC, S. epidermidis PCM521 (S. epidermidis PCM521): 25 µg/mL (≈ 14.4 µM); MIC, E. coli PCM2057 (E. coli PCM2057): >50 µg/mL; MIC, C. albicans PCM2566 (C. albicans PCM2566): 2.5 µg/mL (≈ 1.44 µM); MIC, C. glabrata CCM8270 (C. glabrata CCM8270): 3.13 µg/mL (≈ 1.8 µM); MIC, C. krusei CCM8271 (C. krusei CCM8271): 2.5 µg/mL (≈ 1.44 µM); MIC, C. parapsilosis CCM 8260 (C. parapsilosis CCM 8260): 3.13 µg/mL (≈ 1.8 µM); MIC, antifungal activity (fungi Candida spps): ≤ 3.13 µg/mL

**Q.** `CC[C@H](C)[C@H](NC(=O)[C@H](CCCCN)NC(=O)CNC(=O)[C@H](CC(C)C)NC(=O)[C@@H](NC(=O)[C@H](CCCCN)NC(=O)[C@H](CCCCN)NC(=O)[C@H](Cc1c[nH]c2ccccc12)NC(=O)[C@H](CC(N)=O)NC(=O)[C@@H](N)C(C)C)C(C)C)C(=O)N[C@H](C(=O)N[C@@H](CCCCN)C(=O)N[C@H](C(=O)N[C@@H](C)C(=O)N[C@@H](CCCCN)C(N)=O)C(C)C)[C@@H](C)CC` [LL-I, reference compound] (H-VNWKKVLGKIIKVAK-NH2) was tested. Which “MIC, S. aureus PCM1650” value (S. aureus PCM1650) did it give?
**A.** Its value is 25 µg/mL (≈ 14.5 µM).

**Q.** And the “MIC, S. aureus PCM2054” value (S. aureus PCM2054)?
**A.** The value was >50 µg/mL.

**Q.** And the “MIC, S. epidermidis PCM2118” value (S. epidermidis PCM2118)?
**A.** The value was 6.25 µg/mL (≈ 3.63 µM).

**Q.** And the “MIC, S. epidermidis PCM521” value (S. epidermidis PCM521)?
**A.** Its value is 12.5 µg/mL (≈ 7.25 µM).

**Q.** And the “MIC, E. coli PCM2057” value (E. coli PCM2057)?
**A.** Its value is 12.5 µg/mL (≈ 7.25 µM).

**Q.** What about the “MIC, C. albicans PCM2566” value (C. albicans PCM2566) of the same molecule?
**A.** The value was >50 µg/mL.

**Q.** And the “MIC, C. glabrata CCM8270” value (C. glabrata CCM8270)?
**A.** The value was >50 µg/mL.

**Q.** What about the “MIC, C. krusei CCM8271” value (C. krusei CCM8271) of the same molecule?
**A.** Its value is 50 µg/mL (≈ 29 µM).

**Q.** And the “MIC, C. parapsilosis CCM 8260” value (C. parapsilosis CCM 8260)?
**A.** Its value is 50 µg/mL (≈ 29 µM).
